Test results reported in PubChem BioAssay (NCI).
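These data come from cells grown in 96-well plates and exposed to compound for 48 hours at five concentrations. The concentration for 50% growth inhibition is given as GI50. At the TGI there is no net growth.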

How the values were obtained:
Assay in all cases: DTP human tumour cell line panel, 48 h
DLD-1 colon = tested on: DLD-1 colon
NCI-H460 lung = tested on: NCI-H460 lung
SNB-78 CNS = tested on: SNB-78 CNS
M19-MEL melanoma = tested on: M19-MEL melanoma
MCF7 breast = tested on: MCF7 breast
RXF 393 renal = tested on: RXF 393 renal
DMS 114 small cell lung = tested on: DMS 114 small cell lung
KM20L2 colon = tested on: KM20L2 colon
DMS 273 small cell lung = tested on: DMS 273 small cell lung
NCI/ADR-RES ovarian = tested on: NCI/ADR-RES ovarian
LXFL 529 NSCLC = tested on: LXFL 529 NSCLC
TK-10 renal = tested on: TK-10 renal
MDA-MB-231 breast = tested on: MDA-MB-231 breast

Row | Compound | TGI (DLD-1 colon) [µM] | TGI (NCI-H460 lung) [µM] | GI50 (SNB-78 CNS) [µM] | TGI (SNB-78 CNS) [µM] | TGI (M19-MEL melanoma) [µM] | TGI (MCF7 breast) [µM] | GI50 (RXF 393 renal) [µM] | TGI (RXF 393 renal) [µM] | TGI (DMS 114 small cell lung) [µM] | GI50 (KM20L2 colon) [µM] | TGI (KM20L2 colon) [µM] | TGI (DMS 273 small cell lung) [µM] | TGI (NCI/ADR-RES ovarian) [µM] | TGI (LXFL 529 NSCLC) [µM] | TGI (TK-10 renal) [µM] | TGI (MDA-MB-231 breast) [µM]
1 | O=C(NCCCl)O/N=C/c1cccnc1 | > 100 | > 100 | > 100 | > 100 | > 100 | > 100 | > 100 | > 100 | > 100 | > 100 | > 100 | > 100 | > 100 | – | – | –
2 | CN(C)CCNC(=O)Cc1ccccc1Nc1c(Cl)cccc1Cl | 27.3 | 24.7 | – | 38.7 | 28.5 | – | – | 31.9 | 33.1 | – | 13.9 | 30.5 | – | 32.5 | 27.2 | –
3 | O[C@H]1[C@H](O)[C@@H](O)CN2CC[C@H](O)[C@H]12 | > 100 | > 100 | – | > 100 | > 79.4 | > 100 | – | > 100 | > 100 | – | > 100 | > 100 | > 100 | – | – | –
4 | O=C(NN1C(=O)CS(=O)(=O)C1c1ccc(C(F)(F)F)cc1)c1ccncc1 (centres undefined) | > 100 | > 100 | – | > 100 | – | – | – | > 100 | > 100 | – | – | > 100 | – | > 100 | > 100 | –
5 | CCOC(=O)/C=C1/C(CCCOCc2ccccc2)C2CCCC23CC2(CCN13)OCCO2 (centres undefined) | 73.3 | 47.1 | – | 85.8 | 40 | – | – | 37.5 | 32.9 | – | 56 | 37.9 | – | 90.2 | > 100 | –
6 | O=C1NC(O)CCN1C1OC(CO)C(O)C1O (centres undefined) | > 250 | > 250 | – | > 250 | > 250 | > 250 | – | > 250 | > 250 | – | > 127 | > 250 | > 250 | – | – | –
7 | CCC(C)(C)n1c(C)nc2c1C(=O)c1ccccc1C2=O | > 100 | 29 | – | > 100 | 31.7 | – | – | 59.4 | – | – | > 100 | 44.6 | – | > 100 | > 100 | –
8 | COc1ccc(CC(N)=O)cc1OC | > 1250 | > 1250 | – | > 1250 | > 1250 | > 1250 | – | > 1250 | > 1250 | – | > 1250 | > 1250 | > 1250 | – | – | –
9 | COc1ccc(NC(=O)CSc2nnc(-c3ccc(NC(C)=O)cc3)o2)cc1 | 41 | 34 | – | 44 | 55.7 | – | – | 28.7 | 19.3 | – | 36.8 | 33.7 | – | 26.7 | 41.2 | –
10 | CCOC(=O)CNC(=O)NC12CC3CC(CC(C3)C1)C2 | > 87.2 | > 460 | – | > 520 | 369 | 505 | – | 259 | > 511 | – | > 550 | > 550 | > 550 | – | – | –
11 | CC(C)(C)c1ccc2c(c1)C#Cc1cc3c(cc1OCCCO2)C#Cc1cc(C(C)(C)C)ccc1OCCCO3 | – | > 100 | – | – | – | > 100 | – | > 100 | – | – | – | – | 29.5 | – | > 100 | > 100
12 | O=C(CNc1ccc(Cl)cc1Cl)Nn1c(-c2ccccc2)nc2ccccc2c1=O | – | 30.5 | – | – | – | 27.4 | – | 36.5 | – | – | – | – | 52.9 | – | 36.1 | 36.7
13 | COc1cc2c(cc1OCCCN1C(=O)c3cccc4cccc(c34)C1=O)N=C[C@@H]1CCCN1C2=O | – | > 100 | – | – | – | > 56.7 | – | 34.2 | – | – | – | – | > 100 | – | > 100 | > 100
14 | O=C(CCSC1=NCCCN1)c1ccc(F)cc1 | – | 47.7 | – | – | – | 20.4 | – | 33 | – | – | – | – | > 91.5 | – | 30.8 | 49.1
15 | CCCN(CCC)c1c([N+](=O)[O-])cc(C(=O)N(CC)CC)cc1[N+](=O)[O-] | > 100 | 60.2 | – | > 100 | 47.8 | – | – | 63 | 42.8 | – | 53.1 | 43.7 | – | 63.7 | 76.8 | –
16 | CCOc1c(OC)cc(-c2nc3n(n2)C(=O)C(CC)S3)cc1OC (centres undefined) | – | > 10 | – | – | – | > 10 | – | > 10 | – | – | – | – | > 10 | – | > 10 | > 10
17 | Nc1c(S(=O)(=O)c2ccc(Cl)cc2)c2nc3ccccc3nc2n2ccnc12 | > 100 | > 100 | – | > 100 | > 100 | – | – | – | > 100 | – | – | > 100 | – | > 100 | 78.2 | –
18 | CN1Cc2c(nc(-c3ccccc3)c[n+]2[O-])N(C)C1 | > 100 | > 100 | – | > 100 | > 100 | – | – | – | > 100 | – | > 100 | > 100 | – | > 100 | > 100 | –
19 | CC(C)N1CCN(c2ccc(OCC3COC(Cn4cncn4)(c4ccc(Cl)cc4Cl)O3)cc2)CC1 (centres undefined) | – | 31.3 | – | – | – | 28.9 | – | 25 | – | – | – | – | 54.9 | – | 26.1 | 28.5
20 | O=C1c2cccc3cccc(c23)C(=O)N1CCCNCCCCNCCCNCCCN1C(=O)c2cccc3cccc(c23)C1=O | – | 1.42 | – | – | – | 0.599 | – | 1.44 | – | – | – | – | 49.6 | – | 12.1 | 2.36
